The target of this experiment is T1, Na+-dependent bile acid transport system (Oryctolagus cuniculus, UniProt Q28727).
T1 construct: brush-border membrane vesicles from the ileum of rabbits; from tissue; host or cells: terminal ileum of male New Zealand rabbits, brush-border membrane vesicles
T1 sequence (Q28727 1-347): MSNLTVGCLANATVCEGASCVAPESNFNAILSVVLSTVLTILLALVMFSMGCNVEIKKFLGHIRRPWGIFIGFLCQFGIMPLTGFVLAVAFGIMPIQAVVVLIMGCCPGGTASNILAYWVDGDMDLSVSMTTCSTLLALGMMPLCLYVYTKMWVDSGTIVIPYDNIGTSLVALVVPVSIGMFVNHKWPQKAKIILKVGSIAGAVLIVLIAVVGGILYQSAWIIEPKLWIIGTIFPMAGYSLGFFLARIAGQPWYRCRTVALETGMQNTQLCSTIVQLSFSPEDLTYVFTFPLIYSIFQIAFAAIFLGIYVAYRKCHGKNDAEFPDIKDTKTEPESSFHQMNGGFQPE
Nature of the experiment: Inhibition of Na+-dependent [3H]taurocholate absorption into brush-border membrane vesicles of the ileum. The experiment is classed as biochemical, rabbit. Here is the method: The preparation of brush-border membrane vesicles from the intestinal cells of the small intestine was carried out using the so-called Mg^2+ precipitation method. Male New Zealand rabbits (2-2.5 kg body weight) were sacrificed by intravenous injection of 0.5 ml of T-61^R. The small intestine was removed and rinsed with ice-cold physiological saline solution. The terminal 3/10 of the small intestine (measured in the oral-rectal direction, i.e. the terminal ileum, which contains the active Na^+ -dependent bile acid transport system) were used for preparation of the brush-border membrane vesicles. The intestines were frozen at -80° C. under nitrogen in plastic bags. The frozen intestines were thawed in a water bath at 30° C. in order to prepare the membrane vesicles. The mucosa was scraped off and suspended in 60 ml of ice-cold 12 mM trys/HCl buffer (pH 7.1)/300 mM mannitol, 5 mM EGTA/10 mg/l of phenylmethylsulfonyl fluoride/1 mg/l of soybean trypsin inhibitor (32 U/mg)/0.5 mg/l of bovine lung trypsin inhibitor (193 U/mg)/5 mg/l of bacitracin. After diluting to 300 ml with ice-cold distilled water, the suspension was homogenized with ice-cooling for 3 minutes at 75% of maximum power using an Ultraturrax (18 rod, IKA Werk Staufen, Federal Republic of Germany). After addition of 3 ml of 1M MgCl2 solution (final concentration 10 mM), the homogenate was allowed to stand at 0° C. for exactly 1 minute. As a result of addition of Mg^2+, the cell membranes aggregate and precipitate with the exception of the brush-border membranes. After centrifugation at 3,000×g (5,000 rpm, SS-34 rotor) for 15 minutes, the precipitate is discarded and the supernatant which contains the brush-border membranes is centrifuged at 26,700×g (15,000 rpm, SS-34 rotor) for 30 minutes. The supernatant was discarded, and the precipitate was rehomogenized in 60 ml of 12 mM tris/HCl buffer (pH 7.1)/60 mM mannitol, 5 mM EGTA using a Potter Elvejhem homogenizer (Braun Melsungen, 900 rpm, 10 strokes). After addition of 0.1 ml of 1M MgCl2 solution and an incubation time of 15 minutes at 0° C., the mixture was again centrifuged at 3,000×g for 15 minutes. The supernatant was then again centrifuged at […] (15,000 rpm, SS-34 rotor) for 30 minutes. The precipitate was taken up in 30 ml of 10 mM tris/hepes buffer (pH 7.4)/300 mM mannitol and homogeneously resuspended by 20 strokes in a Potter Elvejhem homogenizer at 1,000 rpm. After centrifugation at 48,000×g (20,000 rpm, SS-34 rotor) for 30 minutes, the precipitate was taken up in 0.5 to 2 ml of tris/hepes buffer (pH 7.4)/280 mM mannitol (final concentration 20 mg/ml) and resuspended with the aid of a tuberculin syringe using a 27 gauge needle. The vesicles were either used immediately after preparation for transport investigations or stored at -196° C. in liquid nitrogen in 4 mg portions.
The absorption of substrates into brush-border membrane vesicles was determined by means of the so-called membrane filtration technique. 10 μl of the vesicle suspension (100 μg of protein) were pipetted on the wall of a polystyrene incubation tube (11×70 mm) as a drop which contained the incubation medium together with the corresponding ligands (90 μl ). […] The incubation medium was filtered through a polyvinylidene fluoride membrane filter (SYHV LO 4NS, 0.45 μm, 4 mm .phi., Millipore, Eschborn, Federal Republic of Germany). The transport measurement was begun by mixing the vesicles with the incubation medium. […] After the desired incubation time (customarily 1 min), the transport was stopped by addition of 1 ml of ice-cold stop solution (10 mM tris/hepes, (pH 7.4)/150 mM KCl). The resulting mixture was immediately filtered off with suction in a vacuum of 25 to 35 mbar through a membrane filter made of cellulose nitrate (ME 25, 0.45 μm, 25 mm diameter, Schleicher & Schuell, Dassell, Federal Republic of Germany). The filter was subsequently washed with 5 ml of ice-cold Stop solution.

The mark [1] stands for this setting: Na+-dependent transport component, 50 μM taurocholate.

Where a name gives a salt, the structure may show the parent alone. Read-outs that look alike come from different tables or passages of the source.

By IC50 is commonly meant the concentration needed to halve the response being measured. As a reminder, the IC25 is the concentration needed for an effect of 25%. Lower therefore signals an effect from little substance. The IC75 is the point of the concentration-response curve where the effect stands at 75%. `C[C@H](CCC(=O)O)[C@H]1CC[C@H]2[C@@H]3[C@H](O)C[C@@H]4C[C@@H](OCCNC(=O)CCCc5ccc(N(CCCl)CCCl)cc5)CC[C@]4(C)[C@H]3C[C@H](O)[C@]12C` [Example 66] returned an IC50 of 86.5 µM. Under setting [1], the 25% effect concentration (IC25) amounted to 60 µM and the IC75 is given as 148 µM.

In the case of `C[C@H](CCC(=O)NCC(=O)O)[C@H]1CC[C@H]2[C@@H]3[C@H](O)C[C@@H]4C[C@@H](OCCNC(=O)CCCc5ccc(N(CCCl)CCCl)cc5)CC[C@]4(C)[C@H]3C[C@H](O)[C@]12C` [Example 68], the IC50 was 89 µM. In addition, under setting [1], the IC25 came out at 60 µM and the IC75 is 250 µM.

As to `CC(C)c1cc(-c2ccc(F)cc2)c(OC[C@@H](O)C[C@@H](O)CC(=O)NCCO[C@H]2CC[C@@]3(C)[C@@H](C2)C[C@@H](O)[C@@H]2[C@@H]3C[C@H](O)[C@]3(C)[C@@H]([C@H](C)CCC(=O)O)CC[C@@H]23)c(C(C)C)c1` [Example 81], the IC25 stood at 15 µM and the IC75 came out at 64 µM. For the same compound, the IC50 (read-out: IC50) worked out at 38 µM.

Regarding `CC(C)c1cc(-c2ccc(F)cc2)c(OC[C@@H](O)C[C@@H](O)CC(=O)NCCCO[C@H]2CC[C@@]3(C)[C@@H](C2)C[C@@H](O)[C@@H]2[C@@H]3C[C@H](O)[C@]3(C)[C@@H]([C@H](C)CCC(=O)O)CC[C@@H]23)c(C(C)C)c1` [Example 82 (Na salt)], it took 17 µM to reach the 25% level (IC25) and the IC75 is 80 µM. Further, under “read-out: IC50”, the IC50 was determined as 48 µM.

The compound `CC(C)c1nc(-c2ccccc2)cc(-c2ccc(F)cc2)c1/C=C/[C@@H](O)C[C@@H](O)CC(=O)NCCO[C@H]1CC[C@@]2(C)[C@@H](C1)C[C@@H](O)[C@@H]1[C@@H]2C[C@H](O)[C@]2(C)[C@@H]([C@H](C)CCC(=O)O)CC[C@@H]12` [Example 85] registered an IC25 of 18 µM and an IC75 of 64 µM. Besides, where the note is “read-out: IC50”, the IC50 turned out to be 43 µM.

For `CC(C)c1nc(-c2ccccc2)cc(-c2ccc(F)cc2)c1/C=C/[C@@H](O)C[C@@H](O)CC(=O)NCCCO[C@H]1CC[C@@]2(C)[C@@H](C1)C[C@@H](O)[C@@H]1[C@@H]2C[C@H](O)[C@]2(C)[C@@H]([C@H](C)CCC(=O)O)CC[C@@H]12` [Example 86], the IC25 came to 14 µM and the 75% effect level (IC75) was put at 87 µM. Further, the IC50 (read-out: IC50) turned out to be 62 µM.

As to `CC(C)c1nc(-c2ccccc2)cc(-c2ccc(F)cc2)c1/C=C/[C@@H](O)C[C@@H](O)CC(=O)NCCCO[C@@H]1CC[C@@]2(C)[C@@H](C1)C[C@@H](O)[C@@H]1[C@@H]2C[C@H](O)[C@]2(C)[C@@H]([C@H](C)CCC(=O)O)CC[C@@H]12` [Example 87], the 25% effect level (IC25) was put at 16 µM and the IC75 turned out to be 70 µM. In addition, the IC50 (read-out: IC50) is 56 µM.

In the case of `Cc1cc(C(=C(/C=C/[C@@H](O)C[C@@H](O)CC(=O)NCCO[C@H]2CC[C@@]3(C)[C@@H](C2)C[C@@H](O)[C@@H]2[C@@H]3C[C@H](O)[C@]3(C)[C@@H]([C@H](C)CCC(=O)O)CC[C@@H]23)C(C)C)c2ccc(F)c(C)c2)ccc1F` [Example 90], the 25% effect concentration (IC25) was found to be 3.8 µM and the IC75 was found to be 27 µM. The IC50 (read-out: IC50) is 12 µM.

For `CC(C)c1cc(Sc2ccc(F)cc2)cc(-c2ccc(F)cc2)c1OC[C@@H](O)C[C@@H](O)CC(=O)NCCO[C@H]1CC[C@@]2(C)[C@@H](C1)C[C@@H](O)[C@@H]1[C@@H]2C[C@H](O)[C@]2(C)[C@@H]([C@H](C)CCC(=O)O)CC[C@@H]12` [Example 93], the IC25 was found to be 3.2 µM and it took 23 µM to reach the 75% level (IC75). Besides, where the note is “read-out: IC50”, the IC50 was 8 µM.

`CC(C)c1cc(Sc2ccc(F)cc2)cc(-c2ccc(F)cc2)c1OC[C@@H](O)C[C@@H](O)CC(=O)NCCCO[C@H]1CC[C@@]2(C)[C@@H](C1)C[C@@H](O)[C@@H]1[C@@H]2C[C@H](O)[C@]2(C)[C@@H]([C@H](C)CCC(=O)O)CC[C@@H]12` [Example 94] displayed an IC25 of 4.5 µM and an IC75 of 24 µM. Moreover, the IC50 (read-out: IC50) came to 13 µM.

In turn, `CC(C)c1cc(-c2ccc(F)cc2)c(OC[C@@H](O)C[C@@H](O)CC(=O)NCCO[C@H]2CC[C@@]3(C)[C@@H](C2)C[C@@H](O)[C@@H]2[C@@H]3C[C@H](O)[C@]3(C)[C@@H]([C@H](C)CCC(=O)NCC(=O)O)CC[C@@H]23)c(C(C)C)c1` [Example 101] showed an IC25 of 19 µM and an IC75 of 68 µM. The IC50 (read-out: IC50) stood at 40 µM.

Regarding `CC(C)c1nc(-c2ccccc2)cc(-c2ccc(F)cc2)c1/C=C/[C@@H](O)C[C@@H](O)CC(=O)NCCO[C@H]1CC[C@@]2(C)[C@@H](C1)C[C@@H](O)[C@@H]1[C@@H]2C[C@H](O)[C@]2(C)[C@@H]([C@H](C)CCC(=O)NCC(=O)O)CC[C@@H]12` [Example 105], the 25% effect concentration (IC25) came out at 11 µM and it took 45 µM to reach the 75% level (IC75). The concentration for half-maximal inhibition (IC50) (read-out: IC50) worked out at 22.5 µM.

The compound `CC(C)c1cc(-c2ccc(F)cc2)c(OC[C@@H](O)C[C@@H](O)CC(=O)NCCO[C@H]2CC[C@@]3(C)[C@@H](C2)C[C@@H](O)[C@@H]2[C@@H]3C[C@H](O)[C@]3(C)[C@@H]([C@H](C)CCC(=O)NCCS(=O)(=O)O)CC[C@@H]23)c(C(C)C)c1` [Example 111] came in with a 25% effect concentration (IC25) of 10 µM and an IC75 of 39 µM. Besides, for the setting “read-out: IC50”, the IC50 is 24 µM.

In the case of `CC(C)c1nc(-c2ccccc2)cc(-c2ccc(F)cc2)c1/C=C/[C@@H](O)C[C@@H](O)CC(=O)NCCO[C@H]1CC[C@@]2(C)[C@@H](C1)C[C@@H](O)[C@@H]1[C@@H]2C[C@H](O)[C@]2(C)[C@@H]([C@H](C)CCC(=O)NCCS(=O)(=O)O)CC[C@@H]12` [Example 115 (Na salt)], the 25% effect concentration (IC25) was found to be 12 µM and the IC75 is 44 µM. Also, where the note is “read-out: IC50”, the IC50 came out at 28 µM.

`COC(=O)CC[C@@H](C)[C@H]1CC[C@H]2[C@@H]3[C@H](O)C[C@@H]4C[C@@H](OCCNC(=O)[C@@H](C)NC(=O)[C@@H](C)NC(=O)OCc5ccccc5)CC[C@]4(C)[C@H]3C[C@H](O)[C@]12C` [Example 119, Z-D-Ala-D-Ala-NH--(CH2)2 --GS--OCH3] returned an IC25 of 48 µM. In addition, under “read-out: IC50”, the IC50 turned out to be 134 µM.

`COC(=O)CC[C@@H](C)[C@H]1CC[C@H]2[C@@H]3[C@H](O)C[C@@H]4C[C@@H](OCCNC(=O)[C@@H](C)NC(=O)[C@@H](C)N)CC[C@]4(C)[C@H]3C[C@H](O)[C@]12C` [Example 120, H-D-Ala-D-Ala-NH--(CH2)2 --GS--OCH3] yielded an IC25 of 38 µM and an IC75 of 178 µM. Further, for the setting “read-out: IC50”, the IC50 stood at 87 µM.

In turn, `C[C@H](CCC(=O)O)[C@H]1CC[C@H]2[C@@H]3[C@H](O)C[C@@H]4C[C@@H](OCCNC(=O)[C@@H](C)NC(=O)[C@@H](C)N)CC[C@]4(C)[C@H]3C[C@H](O)[C@]12C` [Example 121, H-D-Ala-D-Ala-NH--(CH2)2 --GS--OH] returned an IC25 of 30 µM and a 75% effect concentration (IC75) of 172 µM. Further, the IC50 (read-out: IC50) stood at 84 µM.

For the origin of these results see patent US5462933A, “Modified bile acid conjugates, and their use as pharmaceuticals” (Hoechst Aktiengesellschaft, priority 1989, dated 1995).
